Laboratory results from patent US20160120853A1, “TACROLIMUS AND ANALOGUES THEREOF FOR MEDICAL USE” (CHRONOS THERAPEUTICS LIMITED, priority 2013, published 2016).
“Also recorded” adds a separate entry of the source.

How the values were obtained:
worms = experiment: worm lifespan, strain not stated (close structural analogues, dosing frequency); type: in vivo; design: Healthspan / Median Lifespan / Max Lifespan: unit not given here; conditions: for ability to extend the lifespan of worms compared with tacrolimus: lifespan plots FIG. 7 / FIG. 8
Source text: (§1) Worm cultures of at least 80 worms were manually assessed daily for the duration of the lifespan.

Osteoblast cells = experiment: response to oxidative stress of Osteoblast cells; type: cell-based
[1] = blood levels of tacrolimus after one 0.3 mg oral capsule in healthy human volunteers; type: in vivo
Description: A hard gelatine capsule was filled with the following composition:
(§2) One oral capsule as above containing 0.3 mg tacrolimus was administered to groups of healthy human volunteers. […] The average trough level of tacrolimus (level after 24 hours of administration of each dose) observed was approximately 220 pg/mL.

[2] = aged rat study: weekly body weight and survival; type: in vivo
Source text: Aged rats are known to increase in body weight dramatically in late adulthood. Aged rats were being used as a model in RAT_ND_01 and body weights and tissue samples were taken from the rats in this trial. Rats were 18 m of age at the start of the 6 m trial. The dosage is seen in FIG. 4.
Throughout this study (i.e. from 18 months of age onwards), individual weekly body weight assessments were made for both the control and RDC5 treated group. […] At the 1 and 2 week time-points, before the onset of treatment, no significant difference between RDC5 and control treatment could be observed. Control treated rat body weight continued to increase over time from approximately 250 g to over 320 g at the 6 month time-point (at 24 months of age). […] Weight levels dropped initially however not below a healthy age (approx. 230 g) and remained constant (+/−20 g) for the remainder of the study.
Fifty female Fischer rats initially aged 18 months were used in this study. Animals were housed at standard temperature (22±1° C.) in light controlled environment (lights on from 7 am to 8 pm) with ad libitum access to food and water with softer food introduced at 17 weeks to encourage food intake. Half the animals were treated with vehicle (5 ml/kg, s.c.) 6 days a week and half were treated with RDC5 (1 mg/kg, s.c.) 6 days a week. Individual body weights were recorded at baseline and then once a week until the end of the study.

Bus5 worms = experiment: worm lifespan (Healthspan, Median lifespan) in Bus5 worms; type: in vivo; conditions: for Healthspan: Control 10.93; for Median Lifespan: Control 15.08
Source text: as §1

Bus8 worms = experiment: worm lifespan (Healthspan, Median lifespan) in Bus8 background; type: in vivo; design: Healthspan: unit not given here; conditions: for Healthspan: Control 6.87; for Median Lifespan: Control 10.10
Source text: as §1

TNF-α = experiment: blood TNF-α levels in healthy human volunteers after 0.3 mg capsule; type: in vivo; conditions: 0.3 mg oral capsule
Description: as §2

[3] = blood / plasma metabolic biomarkers of aged rats after 6 m treatment; type: in vivo, rat
Source text: A range of techniques has been used to determine the effect RDC5 has on levels of blood biomarkers of obesity and metabolic disorders.
Metabolic biomarkers tested included: • Ketone Bodies—kinetic enzymatic • Free Fatty acids—ACS-ACOD Enzymatic • Glycerol—Calometric • Triglycerides—GPO-POD • HDL Cholesterol—CHO-PAP • LDL Cholesterol—Enzymatic • Total Cholesterol—CHO-PAP
The RDC5 treated and control treated animals had their blood plasma profiled at the end of the investigations.

S. Cerevisiae = experiment: yeast bioscreen, Chronological Lifespan Profile of ageing yeast cultures; type: cell-based
Source text: The yeast bioscreen measures the Chronological Lifespan Profile of an ageing yeast cultures. The median lifespan is defined as the time at which 50% of a given population has died. Relative viability (expressed in the below chart) compares the effect of treatment on a cultures viability as a fraction of control vehicle treated cultures.
RDC5 is thus believed to be able to delay ageing and the onset of age-related diseases such as unwanted fat accumulation.

C. elegans = experiment: lipid accumulation in worms, Oil-Red-O staining; type: in vivo; conditions: for age dependent increase in fat (lipid) accumulation: Oil-Red-O, versus DMSO control
Source text: Tacrolimus is able to delay the age dependent increase in fat accumulation in C. elegans. Worms are a versatile model of obesity ref: (Zheng & Greenway, 2012)
Oil-Red-O is a fat-soluble dye used for staining lipids and is quantified by colour light microscopy.

[4] = post mortem MRI scanning of aged rats, fat:lean ratio; type: in vivo, rat; conditions: for sub-cutaneous fat / visceral fat / fat within the body cavity: 24 month old rats, MRI, versus control treated
Source text: FIG. 11 presents MIR data comparing 3 month old untreated animal, 24 month old control treated animal and 24 month old tacrolimus treated animal. […] This is consistent with a cosmetic improvement (with respect to reduction in sub-cutaneous fat) and a health improvement (with respect to reduction of fat near internal organs) produced by tacrolimus treatment. The MIR images are marked (areas 1) to show internal fat areas. The sub-cutaneous fat layer is the light grey outer ring only easily seen in the 24 month old untreated control.

[5] = FIG. 8 experiment, Control 10.4
[6] = 6 m treatment in rats, versus control
[7] = blood plasma at end of study, versus control treated

CC[C@@H]1/C=C(\C)C[C@H](C)C[C@H](OC)[C@H]2O[C@@](O)(C(=O)C(=O)N3CCCC[C@H]3C(=O)O[C@H](/C(C)=C/[C@@H]3CC[C@@H](O)[C@H](OC)C3)[C@H](C)[C@@H](O)CC1=O)[C@H](C)C[C@@H]2OC [Ascomycin]
Healthspan (worms; FIG. 7 experiment, Control 3.0): 4.1 | Median Lifespan (worms; FIG. 7 experiment, Control 5.7): 7.2 | Max Lifespan (worms; FIG. 7 experiment, Control 8.7): 10.6 | ability to extend the lifespan of worms compared with tacrolimus (worms): as effectively as tacrolimus

CCC[C@@H]1/C=C(\C)C[C@H](C)C[C@H](OC)C2O[C@@](O)(C(=O)C(=O)N3CCCC[C@H]3C(=O)O[C@H](/C(C)=C/[C@@H]3CC[C@@H](O)[C@H](OC)C3)[C@H](C)[C@@H](O)CC1=O)[C@H](C)C[C@@H]2OC [Dihydrotacrolimus]
Healthspan (worms; FIG. 8 experiment, Control 5.9): 7.3 | Median Lifespan (worms; FIG. 8 experiment, Control 8.1): 10.3 | Max Lifespan (worms; [5]): 13.2 | ability to extend the lifespan of worms compared with tacrolimus (worms): almost as effectively as tacrolimus

C=CC[C@@H]1/C=C(\C)C[C@H](C)C[C@H](OC)[C@H]2O[C@@](O)(C(=O)C(=O)N3CCCC[C@H]3C(=O)O[C@H](/C(C)=C/[C@@H]3CC[C@@H](O)[C@H](OC)C3)[C@H](C)[C@@H](O)CC1=O)[C@H](C)C[C@@H]2OC [RDC5, tacrolimus]
shape of dose response, response to oxidative stress (Osteoblast cells): bell shaped dose response | average peak level of tacrolimus ([1]; 0.3 mg oral capsule, healthy volunteers): approximately 3700 pg/mL | AUC(0-t) ([1]; human, blood, 0.3 mg oral capsule, healthy volunteers, read-out: average area under the curve AUC 0-t): ~23.5 ng·h/mL | concentration at 24 h ([1]; human, blood, 0.3 mg oral capsule, level after 24 hours of administration of each dose, healthy volunteers, read-out: average trough level of tacrolimus): ~0.22 ng/mL | expected trough level ([1]; two capsules, single dose of 0.6 mg): about 440 pg/mL | age related weight gain ([2]; 1 mg/kg s.c. 6 days a week): did not show age related weight gain | survival of animals at the end of the study versus control ([2]; 1 mg/kg s.c. 6 days a week, 6 months): No significant differences | lighter than control treated age-matched rats at end of study ([2]; 6 month study, 24 months of age): 28% | Healthspan % increase wrt control (Bus5 worms; Bus5, 1 ug/ml): 33% | Median Lifespan % increase wrt control (Bus5 worms; Bus5, 1 ug/ml): 23% | Healthspan (Bus5 worms; Bus5, 1 ug/ml): 14.55 | Median Lifespan (Bus5 worms; Bus5, 1 ug/ml): 18.54 | Healthspan % increase wrt control (Bus5 worms; Bus5, 10 ug/ml): 23% | Median Lifespan % increase wrt control (Bus5 worms; Bus5, 10 ug/ml): 26% | Healthspan (Bus5 worms; Bus5, 10 ug/ml): 13.43 | Median Lifespan (Bus5 worms; Bus5, 10 ug/ml): 19.03 | Healthspan % increase wrt control (Bus5 worms; Bus5, 40 ug/ml): −6% | Median Lifespan % increase wrt control (Bus5 worms; Bus5, 40 ug/ml): 0.5% | Healthspan (Bus5 worms; Bus5, 40 ug/ml): 10.28 | Median Lifespan (Bus5 worms; Bus5, 40 ug/ml): 15.17 | Healthspan % increase wrt control (Bus8 worms; Bus8, 1 ug/ml): 0.5% | Median Lifespan % increase wrt control (Bus8 worms; Bus8, 1 ug/ml): 7.5% | Healthspan (Bus8 worms; Bus8, 1 ug/ml): 6.90 | Median Lifespan (Bus8 worms; Bus8, 1 ug/ml): 10.86 | Healthspan % increase wrt control (Bus8 worms; Bus8, 10 ug/ml): 14% | Median Lifespan % increase wrt control (Bus8 worms; Bus8, 10 ug/ml): 20% | Healthspan (Bus8 worms; Bus8, 10 ug/ml): 7.85 | Median Lifespan (Bus8 worms; Bus8, 10 ug/ml): 12.18 | Healthspan % increase wrt control (Bus8 worms; Bus8, 20 ug/ml): −9% | Median Lifespan % increase wrt control (Bus8 worms; Bus8, 20 ug/ml): 16% | Healthspan (Bus8 worms; Bus8, 20 ug/ml): 6.23 | Median Lifespan (Bus8 worms; Bus8, 20 ug/ml): 11.70 | Healthspan % increase wrt control (Bus8 worms; Bus8, 40 ug/ml): −3% | Median Lifespan % increase wrt control (Bus8 worms; Bus8, 40 ug/ml): 16% | Healthspan (Bus8 worms; Bus8, 40 ug/ml): 6.67 | Median Lifespan (Bus8 worms; Bus8, 40 ug/ml): 11.70 | dose at which efficacy peaks for Median Lifespan extension (Bus8 worms; Bus8 worms): 10 µg/mL | most efficacious dose at extending Healthspan (Bus8 worms; Bus8 worms, doses tested 1, 10, 20, 40 ug/ml): 10 µg/mL | Healthspan and Median lifespan of populations of worms (Bus8 worms; cultures of at least 80 worms, assessed daily): able to extend | least effective dose (Bus8 worms; dose response in worms, FIG. 9): 40 µg/mL | changes in blood TNF-α levels (TNF-α): No significant changes | HDL [3, 6]: significant reductions | LDL [3, 6]: significant reductions | free fatty acids [3, 6]: reduction is not statistically significant | glycerol [3, 6]: reduction is not statistically significant | ketone bodies [3, 6]: reduction is not statistically significant | total cholesterol [3, 6]: significant reductions | triglycerides [3, 6]: significant reductions; also recorded: beneficial reduction | reduction in lactate dehydrogenase levels [3, 7]: 50% | reduction in total cholesterol [3, 7]: 40% | effect on growth rate (S. Cerevisiae; S. Cerevisiae): without effecting growth rate | median lifespan of yeast cultures versus control treated cultures (S. Cerevisiae; S. Cerevisiae chronological lifespan): significantly longer | Healthspan (worms; FIG. 7 experiment, Control 3.0, listed as RDC5 (Evita)): 4.5 | Healthspan (worms; FIG. 7 experiment, Control 3.0, listed as RDC5 (Sigma)): 4.6 | Median Lifespan (worms; FIG. 7 experiment, Control 5.7, listed as RDC5 (Evita)): 7.1 | Median Lifespan (worms; FIG. 7 experiment, Control 5.7, listed as RDC5 (Sigma)): 7.8 | Max Lifespan (worms; FIG. 7 experiment, Control 8.7, listed as RDC5 (Evita)): 10.3 | Max Lifespan (worms; FIG. 7 experiment, Control 8.7, listed as RDC5 (Sigma)): 11.2 | Healthspan (worms; FIG. 8 experiment, Control 5.9): 7.8 | Median Lifespan (worms; FIG. 8 experiment, Control 8.1): 10.8 | Max Lifespan (worms; [5]): 13.8 | lifespan compared to control (worms; dosing on one third of days, except when dosing not commenced early in lifespan): significant increases | lifespan compared to control (worms; dosing on two thirds of days): significant increases | shape of dose response, worm lifespan extension (worms; in vivo): bell shaped dose response | age dependent increase in fat (lipid) accumulation (C. elegans): shallower rise | age dependent increase in fat (lipid) accumulation (C. elegans; listed as Tacrolimus): able to delay | time at which maximal lipid accumulation happens (C. elegans; days post adulthood, DMSO control day 4): 7 days | sub-cutaneous fat [4]: less | visceral fat / fat within the body cavity [4]: less | sub-cutaneous fat ([4]; listed as tacrolimus): akin to the 3 month old untreated animal | visceral fat / fat within the body cavity ([4]; listed as tacrolimus): much less | average body fat ([4]; rats at 24 months, control roughly 40%, 3 month rats roughly 20%): roughly 30%
